The record followed here is patent publication US9624214B2, “Amino-substituted imidazo[1,2-a]pyridinecarboxamides and their use” (BAYER PHARMA AKTIENGESELLSCHAFT, priority 2012, dated 2017).

Each structure is given as a SMILES string. Where a name gives a salt, the structure may show the parent alone.

The assay concerns the target T1, recombinant guanylate cyclase reporter cell line (Rattus norvegicus, UniProt P19686+P20595).
T1 construct: expressed in transfected cells
T1 sequence (P20595 1-619): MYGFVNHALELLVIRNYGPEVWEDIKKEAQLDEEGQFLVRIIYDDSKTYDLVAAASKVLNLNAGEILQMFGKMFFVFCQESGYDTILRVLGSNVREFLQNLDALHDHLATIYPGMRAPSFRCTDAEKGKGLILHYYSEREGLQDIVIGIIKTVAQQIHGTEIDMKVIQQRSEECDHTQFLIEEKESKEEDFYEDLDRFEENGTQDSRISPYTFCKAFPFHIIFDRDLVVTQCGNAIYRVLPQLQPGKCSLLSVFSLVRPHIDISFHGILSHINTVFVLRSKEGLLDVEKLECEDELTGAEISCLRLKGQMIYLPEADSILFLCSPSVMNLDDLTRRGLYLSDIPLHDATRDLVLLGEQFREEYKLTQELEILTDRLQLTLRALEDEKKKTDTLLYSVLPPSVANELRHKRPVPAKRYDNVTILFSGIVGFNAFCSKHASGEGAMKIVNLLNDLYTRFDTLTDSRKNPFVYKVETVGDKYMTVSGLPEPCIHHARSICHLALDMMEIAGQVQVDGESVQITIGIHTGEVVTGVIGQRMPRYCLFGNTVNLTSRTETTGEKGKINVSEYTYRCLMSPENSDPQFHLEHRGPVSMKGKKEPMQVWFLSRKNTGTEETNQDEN
T1 sequence (P19686 1-690): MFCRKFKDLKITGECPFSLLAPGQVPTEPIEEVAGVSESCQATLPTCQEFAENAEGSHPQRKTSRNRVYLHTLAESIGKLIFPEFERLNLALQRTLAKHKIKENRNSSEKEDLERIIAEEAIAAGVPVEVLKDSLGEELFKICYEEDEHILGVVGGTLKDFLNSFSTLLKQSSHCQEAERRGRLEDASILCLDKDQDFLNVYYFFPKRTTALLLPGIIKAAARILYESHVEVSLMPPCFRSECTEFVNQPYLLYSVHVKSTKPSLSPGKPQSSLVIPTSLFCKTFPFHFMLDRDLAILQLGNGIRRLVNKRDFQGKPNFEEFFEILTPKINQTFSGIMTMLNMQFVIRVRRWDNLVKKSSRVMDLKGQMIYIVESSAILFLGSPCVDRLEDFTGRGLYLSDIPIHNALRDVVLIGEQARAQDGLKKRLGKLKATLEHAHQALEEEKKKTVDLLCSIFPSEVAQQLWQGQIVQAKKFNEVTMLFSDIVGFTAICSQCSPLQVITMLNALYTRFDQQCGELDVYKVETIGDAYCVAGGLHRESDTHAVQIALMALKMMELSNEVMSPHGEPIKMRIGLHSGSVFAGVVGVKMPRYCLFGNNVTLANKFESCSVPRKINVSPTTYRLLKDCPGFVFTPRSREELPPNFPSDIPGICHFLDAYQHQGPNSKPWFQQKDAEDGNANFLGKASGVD
As to the kind of experiment: B-2. Action on recombinant guanylate cyclase reporter cell line. Type of assay: cell-based. The settings on record: MEC = minimal effective concentration; in some cases mean values from individual determinations. An outline of the steps:
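Whole-cell reporter assay with recombinant guanylate cyclase; endpoint = minimal effective concentration.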

Turning to `COCC(C)(N)CNC(=O)c1c(C)nc2c(OCc3c(F)cccc3F)cc(C)cn12` (single isomer, unassigned) [Example 199, ent-N-(2-Amino-3-methoxy-2-methylpropyl)-8-[(2,6-difluorobenzyl)oxy]-2,6-dimethylimidazo-[1,2-a]pyridine-3-carboxamide], the MEC was determined as 0.30 µM.

Consider `CC[C@](C)(N)CNC(=O)c1c(C)nc2c(OCc3c(F)cccc3F)cc(C)cn12` (single isomer, unassigned) [Example 200], for which the MEC amounted to 0.04 µM.

Consider `Cc1nc2c(OCc3c(F)cccc3F)cccn2c1C(=O)NCC(C)(N)CC(C)C` (single isomer, unassigned) [Example 203, ent-N-(2-Amino-2,4-dimethylpentyl)-8-[(2,6-difluorobenzyl)oxy]-2-methylimidazo[1,2-a]pyridine-3-carboxamide], for which the MEC was found to be 0.10 µM.

For `Cc1nc2c(OCc3c(F)cccc3F)cccn2c1C(=O)NCC(C)(N)CC(C)C` (single isomer, unassigned) [Example 204, ent-N-(2-Amino-2,4-dimethylpentyl)-8-[(2,6-difluorobenzyl)oxy]-2-methylimidazo[1,2-a]pyridine-3-carboxamide], the MEC is 1.00 µM.

As to `Cc1nc2c(OCc3c(F)cccc3F)cccn2c1C(=O)NCC(N)C(F)(F)F` (single isomer, unassigned) [Example 208, ent-N-(2-Amino-3,3,3-trifluoropropyl)-8-[(2,6-difluorobenzyl)oxy]-2-methylimidazo[1,2-a]-pyridine-3-carboxamide], the MEC was found to be 0.30 µM.

Consider `Cc1nc2c(OCc3c(F)cccc3F)cccn2c1C(=O)NCC(N)C(F)(F)F` (single isomer, unassigned) [Example 209, ent-N-(2-Amino-3,3,3-trifluoropropyl)-8-[(2,6-difluorobenzyl)oxy]-2-methylimidazo[1,2-a]-pyridine-3-carboxamide], for which the MEC turned out to be 0.30 µM.

For the molecule `COCC(CN)NC(=O)c1c(C)nc2c(OCc3c(F)cccc3F)cc(C)cn12` (single isomer, unassigned) [Example 210, ent-N-(1-amino-3-methoxypropan-2-yl)-8-[(2,6-difluorobenzyl)oxy]-2,6-dimethylimidazo[1,2-a]-pyridine-3-carboxamide Trifluoroacetate], the MEC is 0.30 µM.

For the molecule `Cc1nc2c(OCc3c(F)cccc3F)cc(Cl)cn2c1C(=O)NCC(N)C(C)C` (single isomer, unassigned) [Example 211, ent-N-(2-Amino-3-methylbutyl)-6-chloro-8-[(2,6-difluorobenzyl)oxy]-2-methylimidazo[1,2-a]-pyridine-3-carboxamide], the MEC was determined as 0.30 µM.

Consider `Cc1nc2c(OCc3c(F)cccc3F)cc(Cl)cn2c1C(=O)NCC(N)C(C)C` (single isomer, unassigned) [Example 212, ent-N-(2-Amino-3-methylbutyl)-6-chloro-8-[(2,6-difluorobenzyl)oxy]-2-methylimidazo[1,2-a]-pyridine-3-carboxamide], for which the MEC was 1.00 µM.

Regarding `COCC(C)(N)CNC(=O)c1c(C)nc2c(OCc3c(F)cccc3F)cccn12` (single isomer, unassigned) [Example 214, ent-N-(2-Amino-3-methoxy-2-methylpropyl)-8-[(2,6-difluorobenzyl)oxy]-2-methylimidazo[1,2-a]-pyridine-3-carboxamide], the MEC amounted to 0.30 µM.

In the case of `COCC(C)(N)CNC(=O)c1c(C)nc2c(OCc3c(F)cccc3F)cccn12` (single isomer, unassigned) [Example 215, ent-N-(2-Amino-3-methoxy-2-methylpropyl)-8-[(2,6-difluorobenzyl)oxy]-2-methylimidazo[1,2-a]-pyridine-3-carboxamide], the MEC came out at 1.00 µM.

For `Cc1cc(OCc2c(F)cccc2F)c2nc(C)c(C(=O)NCC(C)(N)CC(C)C)n2c1` (single isomer, unassigned) [Example 219, ent-N-(2-Amino-2,4-dimethylpentyl)-8-[(2,6-difluorobenzyl)oxy]-2,6-dimethylimidazo[1,2-a]-pyridine-3-carboxamide], the MEC is 0.30 µM.

`Cc1cc(OCc2c(F)cccc2F)c2nc(C)c(C(=O)NCC(C)(N)CC(C)C)n2c1` (single isomer, unassigned) [Example 220, ent-N-(2-Amino-2,4-dimethylpentyl)-8-[(2,6-difluorobenzyl)oxy]-2,6-dimethylimidazo[1,2-a]-pyridine-3-carboxamide]: the MEC came out at 0.10 µM.

For the molecule `Cc1cc(OCc2c(F)cccc2F)c2nc(C)c(C(=O)NCC(N)C(C)C)n2c1` (single isomer, unassigned) [Example 223, ent-N-(2-Amino-3-methylbutyl)-8-[(2,6-difluorobenzyl)oxy]-2,6-dimethylimidazo[1,2-a]pyridine-3-carboxamide], the MEC turned out to be 0.30 µM.

For the molecule `Cc1cc(OCc2c(F)cccc2F)c2nc(C)c(C(=O)NCC(N)C(C)C)n2c1` (single isomer, unassigned) [Example 224, ent-N-(2-Amino-3-methylbutyl)-8-[(2,6-difluorobenzyl)oxy]-2,6-dimethylimidazo[1,2-a]pyridine-3-carboxamide], the MEC amounted to 0.30 µM.

With `Cc1nc2c(OCc3c(F)cccc3F)cc(Cl)cn2c1C(=O)NCC(C)(N)CC(C)C` (single isomer, unassigned) [Example 226, ent-N-(2-Amino-2,4-dimethylpentyl)-6-chloro-8-[(2,6-difluorobenzyl)oxy]-2-methylimidazo[1,2-a]pyridine-3-carboxamide], the MEC came out at 0.10 µM.

Regarding `Cc1nc2c(OCc3c(F)cccc3F)cc(Cl)cn2c1C(=O)NCC(C)(N)CC(C)C` (single isomer, unassigned) [Example 227, ent-N-(2-Amino-2,4-dimethylpentyl)-6-chloro-8-[(2,6-difluorobenzyl)oxy]-2-methylimidazo[1,2-a]pyridine-3-carboxamide], the MEC worked out at 0.30 µM.

As for `Cc1nc2c(OCc3c(F)cccc3F)cccn2c1C(=O)NCC(N)C(C)C` (single isomer, unassigned) [Example 228, ent-N-(2-Amino-3-methylbutyl)-8-[(2,6-difluorobenzyl)oxy]-2-methylimidazo[1,2-a]pyridine-3-carboxamide], the MEC came to 1.00 µM.

In the case of `Cc1nc2c(OCc3c(F)cccc3F)cccn2c1C(=O)NCC(N)C(C)C` (single isomer, unassigned) [Example 229, ent-N-(2-Amino-3-methylbutyl)-8-[(2,6-difluorobenzyl)oxy]-2-methylimidazo[1,2-a]pyridine-3-carboxamide], the MEC is 1.00 µM.

Consider `Cc1nc2c(OCc3c(F)cccc3F)cccn2c1C(=O)NCC(N)C(F)(F)C(F)F` (single isomer, unassigned) [Example 231, ent-N-(2-Amino-3,3,4,4-tetrafluorobutyl)-8-[(2,6-difluorobenzyl)oxy]-2-methylimidazo[1,2-a]-pyridine-3-carboxamide], for which the MEC came to 0.30 µM.

With `CCCC(C)(N)CNC(=O)c1c(C)nc2c(OCc3c(F)cccc3F)cc(C)cn12` (single isomer, unassigned) [Example 233, ent-N-(2-Amino-2-methylpentyl)-8-[(2,6-difluorobenzyl)oxy]-2,6-dimethylimidazo[1,2-a]pyridine-3-carboxamide], the MEC is 0.10 µM.

On to `CCCC(C)(N)CNC(=O)c1c(C)nc2c(OCc3c(F)cccc3F)cc(C)cn12` (single isomer, unassigned) [Example 234, ent-N-(2-Amino-2-methylpentyl)-8-[(2,6-difluorobenzyl)oxy]-2,6-dimethylimidazo[1,2-a]pyridine-3-carboxamide], for which the MEC is 0.03 µM.

Turning to `Cc1nc2c(OCc3c(F)cccc3F)cc(Cl)cn2c1C(=O)NCC(C)(N)C(F)(F)F` (single isomer, unassigned) [Example 237, ent-N-(2-Amino-3,3,3-trifluoro-2-methylpropyl)-6-chloro-8-[(2,6-difluorobenzyl)oxy]-2-methylimidazo[1,2-a]pyridine-3-carboxamide], the MEC turned out to be 0.30 µM.
